Legend:
[1] = (§1) Automated patch clamp (Tonic Block): Test Protocol for Determining the Potency of Compounds on Nav1.2 and Nav1.6 Subtypes of Voltage-Gated Sodium Ion Channels Expressed in Mammalian CellsCell culture procedures: Chinese hamster ovary (CHO) cells were stably transfected with the cDNA sequence of either the human SCN2A or SCN8A genes to create hNav1.2 or hNav1.6 cells respectively. The cell lines were cultured in Ham's F-12 medium supplemented with 10% fetal bovine serum and antibiotics in a tissue incubator at 37° C. under a humidified air/CO2 mixture (95/5 v/v). On the day of the experiment, cells were washed twice with Hank's balanced salt solution, treated with trypsin, and resuspended in fresh culture media at a density of 4−6×10^6 cells in 20 ml. Immediately before placing in the IonWorks Quattro instrument, cells were washed in Hank's balanced salt solution to remove culture medium and re-suspended in 3 ml of Hank's balanced salt solution. Automated patch clamp recordings of cells using the IonWorks Quattro Instrument: The assay used a 384 microwell plate, which enabled 20 compounds to be studied at four different concentrations in quadruplicate as well as allowing a vehicle control group and a positive control group using mexiletine at 8 different concentrations. Cells were added to the wells of the Population Patch Clamp planar electrode using a 48-channel pipettor in a volume of 6 μL, per well. After 5 minutes incubation at ambient temperature with compounds or vehicle, membrane currents were recorded using the patch clamp amplifier. The pulse pattern was repeated twice, before and after compound addition and peak current amplitudes were measured at TP11 to measure 10 Hz Frequency-dependent Block. Data analysis: Data acquisition and analyses were carried out using the IonWorks Quattro system operation software which uses an algorithm to correct data for leak currents. Concentration-response curves were fitted by non-linear least squares regression allowing calculation of an IC50 value (μM), being the concentration of the compound producing half-maximal inhibition.
[2] = as §1, with “(Inactivation State” for “(Tonic”, “TP12” for “TP11”, “Inactivation State” for “10 Hz Frequency-dependent”
[3] = Automated patch clamp (Tonic Block): Test Protocol for Determining the Potency of Compounds on Nav1.2 and Nav1.6 Subtypes of Voltage-Gated Sodium Ion Channels Expressed in Mammalian CellsCell culture procedures: Chinese hamster ovary (CHO) cells were stably transfected with the cDNA sequence of either the human SCN2A or SCN8A genes to create hNav1.2 or hNav1.6 cells respectively. The cell lines were cultured in Ham's F-12 medium supplemented with 10% fetal bovine serum and antibiotics in a tissue incubator at 37° C. under a humidified air/CO2 mixture (95/5 v/v). On the day of the experiment, cells were washed twice with Hank's balanced salt solution, treated with trypsin, and resuspended in fresh culture media at a density of 4−6×10^6 cells in 20 ml. Immediately before placing in the IonWorks Quattro instrument, cells were washed in Hank's balanced salt solution to remove culture medium and re-suspended in 3 ml of Hank's balanced salt solution. Automated patch clamp recordings of cells using the IonWorks Quattro Instrument: The assay used a 384 microwell plate, which enabled 20 compounds to be studied at four different concentrations in quadruplicate as well as allowing a vehicle control group and a positive control group using mexiletine at 8 different concentrations. […]

SMILES	IC50 [1]	IC50 [2]	IC50 [3]
Cc1cccc(C)c1OCCCNCc1ccc(-c2ccccc2)cc1	> 1000 µM	> 1000 µM	
Cc1cccc(C)c1OCCCNC(c1ccccn1)c1ccccn1		0.1 µM	
Cc1n[nH]c(C)c1OCCCNCc1cccc(-c2cncnc2)c1	> 10 µM	> 10 µM	
Cc1n[nH]c(C)c1OCCCNC(c1ccccn1)c1ccccn1	> 10 µM	> 10 µM	
Cc1nn(C)c(C)c1OCCCNC(c1ccccn1)c1ccccn1	> 10 µM	> 10 µM	
Cc1cccc(C)c1OCCCNCc1cccc(C#N)c1	2 µM	2 µM	
Cc1nn(C)c(C)c1OCCCNCc1cccc(-c2cncnc2)c1	> 10 µM	> 10 µM	
Cc1cccc(C)c1OCCCNCc1cccc(C(F)(F)F)c1	> 10 µM	> 10 µM	> 10 µM
Cc1cccc(C)c1OCCCNCc1cc(C(C)(C)C)cc(C(C)(C)C)c1	> 10 µM	> 10 µM	

Source: ChEMBL document CHEMBL5727547, “Sodium channel modulators” (2020)
